Where two headings read alike, the source gives them in different places. No end group written: not given here.
How the values were obtained:
rat hepatic artery = assay: Recording of tension: relaxation of isolated rat hepatic artery contracted with phenylephrine; details: for effect on anandamide-induced relaxation / effect on AM404-induced relaxations: capsaicin 10 μM pre-treatment; for effect on anandamide-induced relaxation: 8-37 CGRP 2 μM; for effect on AM404-induced relaxations: 8-37 CGRP 3 μM, SR141716A 0.3 μM; for EC50: read-out: pEC50 of relaxation (converted); for vasodilator response (relaxation): α-latrotoxin 1 nM
rat mesenteric artery = assay: Recording of tension: relaxation of isolated rat mesenteric artery contracted with phenylephrine; details: for effect on anandamide-induced relaxation / effect on relaxant effects of 1-arachidonylglycerol and 2-arachidonylglycerol: capsaicin 10 μM pre-treatment; for effect on anandamide-induced relaxation: 8-37 CGRP 2 μM; for effect on relaxant effects of 1-arachidonylglycerol and 2-arachidonylglycerol: rat mesenteric arteries, capsazepine 1 μM
[1] = tested on: guinea pig basilar artery; assay: Recording of tension: relaxation of isolated guinea pig basilar artery contracted with prostaglandin F2α; details: for effect on anandamide-induced relaxation: capsaicin 10 μM pre-treatment, 8-37 CGRP 2 μM; for Emax / EC50: Cavia porcellus; for Emax: read-out: Emax of relaxation, guinea pig basilar artery; for EC50: read-out: pEC50 of relaxation, guinea pig basilar artery (converted)
[2] = biological target: cannabinoid CB1 receptors (Homo sapiens, UniProt P21554); details: cited from earlier work
[3] = tested on: CGRP release from perivascular sensory nerves; assay: Measurement of CGRP release from rat hepatic artery segments (radioimmunoassay)
Method: Measurement of CGRP and cyclic AMP.
After 10 minutes the segments were removed and the physiological salt solution was evaporated.

cyclic AMP content = assay: Measurement of cyclic AMP content in rat hepatic artery segments
vanilloid receptors = biological target: T1, vanilloid receptors (Rattus norvegicus, UniProt O35433); assay: Schild analysis of capsazepine antagonism of relaxation in rat hepatic artery; details: for slope of the Schild regression line: mean±SEM; for Kb: pA2 (Schild plot)
T1 construct: To determine whether native vanilloid receptors might be involved in the action of anandamide; from tissue; host or cells: hepatic artery ring segments from female Wistar-Hannover rats
Method: Recording of tension. Experiments were performed on hepatic (400 μm outer diameter) and mesenteric (200 μm outer diameter) arteries from female Wistar-Hannover rats (200-250 g) and on basilar arteries (300 μm outer diameter) from male guinea pigs. […] All experiments were performed in the presence of N^G-nitro-L-arginine (0.3 mM) and indomethacin (10 μM) to eliminate any contribution of nitric oxide and cyclooxygenase products, respectively (refs. 38, 23). Relaxant responses were studied in preparations contracted with phenylephrine (rat hepatic and mesenteric arteries) and prostaglandin F2α (guinea pig basilar artery) (refs. 38, 43). When stable contractions were obtained, agonists were added cumulatively to determine concentration-response relationships.
Some preparations were pre-treated with capsaicin for 1 hour followed by washout for 20 minutes. Each vessel segment was exposed to only one treatment. The experiments were carried out with the approval of the local ethics committee.
Calculations and statistics. Relaxations are expressed as percentage reversal of the prevailing contraction (100% indicates a complete reversal to basal tension). […] Data are presented as means±s.e.mean (vertical lines in figures), and n indicates the number of vascular segments (animals) examined. pA2 and slope values of the Shild plots were estimated according to the Jackknife method (ref. 46). Statistical analysis was performed by using Student's t-test (two-tailed), Mann-Whitney U-test, or analysis of variance (ANOVA) on log transformed values (cyclic AMP) followed by Bonferroni Dunn's post hoc test (Statview 4.12). Statistical significance was accepted when P<0.05.

[4] = rat mesenteric artery, capsazepine 3 μM
[5] = guinea pig basilar artery, capsazepine 3 μM
[6] = Rattus norvegicus, control (agonist alone)
[7] = guinea pig basilar artery, 10 μM
[8] = Rattus norvegicus, in presence of SR141716A (0.3 μM)
[9] = in presence of SR141716A (0.3 μM)
[10] = segments pre-treated with capsaicin (10 μM)

T1 sequence (O35433 whole entry): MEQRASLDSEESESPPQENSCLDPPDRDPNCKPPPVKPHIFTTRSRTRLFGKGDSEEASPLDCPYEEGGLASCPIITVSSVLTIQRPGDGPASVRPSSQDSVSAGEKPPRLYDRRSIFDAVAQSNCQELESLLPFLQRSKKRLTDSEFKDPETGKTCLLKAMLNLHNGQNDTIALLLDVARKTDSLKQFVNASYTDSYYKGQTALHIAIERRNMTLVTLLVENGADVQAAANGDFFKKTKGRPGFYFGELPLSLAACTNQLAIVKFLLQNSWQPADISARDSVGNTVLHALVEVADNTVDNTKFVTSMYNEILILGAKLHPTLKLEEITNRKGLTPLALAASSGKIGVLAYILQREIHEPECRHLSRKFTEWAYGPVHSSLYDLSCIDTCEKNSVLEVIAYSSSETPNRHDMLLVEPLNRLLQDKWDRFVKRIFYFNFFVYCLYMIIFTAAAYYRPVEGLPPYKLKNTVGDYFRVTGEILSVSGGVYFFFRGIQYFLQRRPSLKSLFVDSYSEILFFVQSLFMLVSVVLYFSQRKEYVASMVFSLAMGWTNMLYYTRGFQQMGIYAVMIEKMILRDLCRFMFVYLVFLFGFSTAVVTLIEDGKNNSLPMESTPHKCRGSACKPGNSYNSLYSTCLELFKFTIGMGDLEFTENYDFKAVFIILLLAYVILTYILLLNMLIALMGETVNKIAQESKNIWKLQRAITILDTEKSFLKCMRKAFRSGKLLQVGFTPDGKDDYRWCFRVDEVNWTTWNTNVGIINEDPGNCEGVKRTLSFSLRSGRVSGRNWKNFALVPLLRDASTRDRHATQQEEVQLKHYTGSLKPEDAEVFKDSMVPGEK
cannabinoid CB1 receptors, sequence (P21554 whole entry): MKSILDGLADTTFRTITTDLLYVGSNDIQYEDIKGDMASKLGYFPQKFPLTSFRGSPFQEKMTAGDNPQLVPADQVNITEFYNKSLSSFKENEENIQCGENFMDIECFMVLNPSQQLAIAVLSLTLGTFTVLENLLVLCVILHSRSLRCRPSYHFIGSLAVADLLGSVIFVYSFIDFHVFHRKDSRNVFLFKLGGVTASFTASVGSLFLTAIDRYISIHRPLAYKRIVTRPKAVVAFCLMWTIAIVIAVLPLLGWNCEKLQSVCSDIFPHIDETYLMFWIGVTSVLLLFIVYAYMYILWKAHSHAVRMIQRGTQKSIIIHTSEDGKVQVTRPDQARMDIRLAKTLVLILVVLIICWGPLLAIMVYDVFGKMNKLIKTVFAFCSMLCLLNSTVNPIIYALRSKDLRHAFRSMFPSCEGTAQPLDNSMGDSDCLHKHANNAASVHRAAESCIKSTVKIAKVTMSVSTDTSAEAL

8-37 CGRP: selective CGRP receptor antagonist (VTHRLAGLLSRSGGVVKNNFVPTNVGSKAF; ends and bridges not checked; UniProt P06881 90-119, looked up, fragment)
effect on anandamide-induced relaxation (rat hepatic artery; capsazepine 3 μM): inhibited | effect on AM404-induced relaxations (rat hepatic artery; capsazepine 3 μM): abolished | effect on anandamide-induced relaxation (rat mesenteric artery; [4]): inhibited | effect on anandamide-induced relaxation [1, 5]: inhibited

CCCCC/C=C\C/C=C\C/C=C\C/C=C\CCCCOCC(O)CO (stereo not shown) [1-arachidonylglycerol]
vasodilator action (rat mesenteric artery; rat mesenteric arteries contracted with phenylephrine): vasodilators

CCCCCC=CCC=CCC=CCC=CCCCC(=O)Nc1ccc(O)cc1 [AM404, N-(4-hydroxyphenyl)-5,8,11,14-eicosatetraenamide]
vasodilator potency compared to anandamide (rat hepatic artery): ~10 times | Emax (rat hepatic artery; [6]): 97 ± 2% | EC50 (rat hepatic artery; [6]): 39.8 nM | effect on anandamide-induced relaxation (rat hepatic artery; capsazepine 3 μM): inhibited this response | pEC50 of relaxation (rat hepatic artery; control (agonist alone)): 7.3±0.2 | pEC50 of relaxation (rat hepatic artery; in presence of capsazepine (3 μM)): 6.4±0.2 | Ki [2]: 1760 nM

CCCCCCC(C)(C)c1ccc([C@@H]2C[C@H](O)CC[C@H]2CCCO)c(O)c1 [CP 55,940]
relaxation at 10 μM (rat hepatic artery; 10 μM): significant relaxation | relaxation after pre-treatment with capsaicin (rat hepatic artery; 10 μM, capsaicin (10 μM) pre-treatment): resistant to pre-treatment with capsaicin | relaxation at 10 μM [1, 7]: significant relaxation | relaxation after pre-treatment with capsaicin ([1]; guinea pig basilar artery, 10 μM, capsaicin (10 μM) pre-treatment): resistant to pre-treatment with capsaicin

CCCCCCC(C)(C)c1cc(O)c2c(c1)OC(C)(C)[C@@H]1CC=C(CO)C[C@@H]21 [HU 210]
relaxation (rat hepatic artery): did not produce any relaxation | relaxation ([1]; guinea pig basilar artery): did not produce any relaxation

Cc1c(C(=O)NN2CCCCC2)nn(-c2ccc(Cl)cc2Cl)c1-c1ccc(Cl)cc1.Cl [SR141716A, N-(piperidin-1-yl)-5-(4-chlorophenyl)-1-(2,4-dichlorophenyl)-4-methyl-1H-pyrazole-3-carboxamide hydrochloride]
effect on AM404-induced relaxations (rat hepatic artery; capsazepine 3 μM): without effect

Cc1c(C(=O)c2cccc3ccccc23)c2cccc3c2n1[C@H](CN1CCOCC1)CO3 [WIN 55,212-2]
relaxation (rat hepatic artery): did not produce any relaxation | relaxation ([1]; guinea pig basilar artery): did not produce any relaxation

CCCCC/C=C\C/C=C\C/C=C\C/C=C\CCCC(=O)NCCO [anandamide, arachidonylethanolamide]
relaxation at 10 μM (rat hepatic artery; 10 μM): completely relaxed | Emax (rat hepatic artery; [6]): 100 ± 1% | EC50 (rat hepatic artery; [6]): 355 nM | Emax (rat hepatic artery; [8]): 97 ± 1% | pEC50 of relaxation (rat hepatic artery; control (agonist alone)): 6.49±0.01 | pEC50 of relaxation (rat hepatic artery; [9]): 6.44±0.12 | Emax ([1]; control (agonist alone)): 92 ± 3% | Emax [1, 9]: 91 ± 2% | EC50 ([1]; control (agonist alone)): 955 nM | EC50 [1, 9]: 776 nM | relaxation at 10 μM [1, 7]: completely relaxed | release of CGRP ([3]; anandamide 10 μM, 10 minute exposure): significant release of CGRP | release of CGRP after capsaicin pre-treatment [3, 10]: absent | tissue content of cyclic AMP (cyclic AMP content; anandamide 10 μM or CGRP 10 nM, 5 minutes): increase in tissue content of cyclic AMP | tissue content of cyclic AMP after capsaicin pre-treatment (cyclic AMP content; [10]): absent

CCCCC/C=C\C/C=C\C/C=C\C/C=C\CCCC(=O)O [arachidonic acid]
relaxation at 10 μM (rat hepatic artery; 10 μM): inactive | relaxation at 10 μM [1, 7]: inactive

COc1cc(CNC(=O)CCCC/C=C/C(C)C)ccc1O [capsaicin]
relaxation at 10 μM (rat hepatic artery; 10 μM): completely relaxed | Emax (rat hepatic artery; [6]): 99 ± 1% | Emax (rat hepatic artery; Rattus norvegicus, in presence of SR141716A (10 μM)): 90 ± 3% | effect on anandamide-induced relaxation (rat hepatic artery; capsazepine 3 μM): abolished | effect on AM404-induced relaxations (rat hepatic artery; capsazepine 3 μM): abolished | EC50 (rat hepatic artery; control (agonist alone)): 4.27 nM | pEC50 of relaxation (rat hepatic artery; in presence of SR141716A (10 μM)): 7.42±0.12 | effect on relaxant effects of 1-arachidonylglycerol and 2-arachidonylglycerol (rat mesenteric artery): abolished | effect on anandamide-induced relaxation (rat mesenteric artery; [4]): abolished | relaxation at 10 μM [1, 7]: completely relaxed | effect on anandamide-induced relaxation [1, 5]: abolished

Oc1cc2c(cc1O)CN(C(=S)NCCc1ccc(Cl)cc1)CCC2 [capsazepine]
effect on anandamide-induced relaxation (rat hepatic artery; capsazepine 3 μM): significantly inhibited | effect on AM404-induced relaxations (rat hepatic artery; capsazepine 3 μM): significant right-ward shift | effect on capsaicin-induced relaxation (rat hepatic artery; capsazepine 3 μM): significantly inhibited | effect on relaxant effects of 1-arachidonylglycerol and 2-arachidonylglycerol (rat mesenteric artery): inhibited | effect on anandamide-induced relaxation (rat mesenteric artery; [4]): significantly inhibited | effect on capsaicin-induced relaxation (rat mesenteric artery; [4]): significantly inhibited | effect on anandamide-induced relaxation [1, 5]: significantly inhibited | effect on capsaicin-induced relaxation [1, 5]: significantly inhibited | effect on anandamide-induced release of CGRP ([3]; capsazepine 10 μM): inhibited | slope of the Schild regression line (vanilloid receptors; capsaicin as agonist): 2.12±0.36 | slope of the Schild regression line (vanilloid receptors; methanandamide as agonist): 2.41±0.32 | Kb (vanilloid receptors; capsaicin as agonist): 575 nM | Kb (vanilloid receptors; methanandamide as agonist): 457 nM

NCCO [ethanolamine]
relaxation at 10 μM (rat hepatic artery; 10 μM): inactive | relaxation at 10 μM [1, 7]: inactive

CCCCC/C=C\C/C=C\C/C=C\C/C=C\CCCC(=O)N[C@H](C)CO [methanandamide]
Emax (rat hepatic artery; [6]): 99 ± 1% | EC50 (rat hepatic artery; [6]): 316 nM | Emax (rat hepatic artery; [8]): 99 ± 1% | Emax of relaxation (rat hepatic artery; control (agonist alone)): 97±1% | pEC50 of relaxation (rat hepatic artery; control (agonist alone)): 6.53±0.08 | pEC50 of relaxation (rat hepatic artery; [9]): 6.30±0.04

CCCCCCCCCCCCCCCC(=O)NCCO [palmitylethanolamide]
relaxation (rat hepatic artery): did not produce any relaxation | relaxation ([1]; guinea pig basilar artery): did not produce any relaxation

B1: α-latrotoxin (protein, UniProt P23631 21-1199, looked up)
Alpha-latrotoxin-Lt1a: EGEDLTLEEKAEICSELELQQKYVDIASNIIGDLSSLPIAGKIAGTIAAAAMTATHVASGRLDIEQTLLGCSDLPFDQIKEVLENRFNEIDRKLDSHSAALEEITKLVEKSISVVEKTRKQMNKRFDEVMKSIQDAKVSPIISKINNFARYFDTEKERIRGLKLNDYILKLEEPNGILLHFKESRTPTDDSLQAPLFSIIEEGYAVPKSIDDELAFKVLYALLYGTQTYVSVMFFLLEQYSFLANHYYEKGYLEKYDEYFNSLNNVFLDFKSSLVGTGTSNNEGLLDRVLQVLMTVKNSEFLGLEKNGVDEMLNEKINLFNKIKEEIEGKQKMTLSETPENFAQISFDKDITTPIGDWRDGREVRYAVQYASETLFSKISHWSDPVSVREKACPTLRMPVDQTRRNVLVFRKFDSSKPQLVGEITPYLSNFIDIDRDLYNAASNPDSAVGFKEFTKLNYDGANIRATFDHGRTVFHAAAKSGNDKIMFGLTFLAKSTELNQPDKKGYTPIHVAADSGNAGIVNLLIQRGVSINSKTYHFLQTPLHLAAQRGFVTTFQRLMESPEININERDKDGFTPLHYAIRGGERILEAFLNQISIDVNAKSNTGLTPFHLAIIKNDWPVASTLLGSKKVDINAVDENNITALHYAAILGYLETTKQLINLKEINANVVSSPGLLSALHYAILYKHDDVASFLMRSSNVNVNLKALGGITPLHLAVIQGRKQILSLMFDIGVNIEQKTDEKYTPLHLAAMSKYPELIQILLDQGSNFEAKTNSGATPLHLATFKGKSQAALILLNNEVNWRDTDENGQMPIHGAAMTGLLDVAQAIISIDATVVDIEDKNSDTPLNLAAQNSHIDVIKYFIDQGADINTRNKKGLAPLLAFSKKGNLDMVKYLFDKNANVYIADNDGMNFFYYAVQNGHLNIVKYAMSEKDKFEWSNTDNNRRDECPNEECAISHFAVCDAVQFDRIEIVKYFVGTLGNFAICGPLHQAARYGHLDIVKYLVEEEFLSVDGSKTDTPLCYASENGHFTVVQYLVSNGAKVNHDCGNGMTAIDKAITKNHLQVVQFLAANGVDFRRKNSRGTTPFLTAVAENALHIAEYLIREKRQDININEQNVDKDTALHLAVYYKNLQMIKLLIKYGIDVTIRNAYDKTALDIAIDAKFSNIVEYLKTKSGKFRR
vasodilator response (relaxation) (rat hepatic artery; CGRP 8-37 (2 μM)): −8±3% | vasodilator response (relaxation) (rat hepatic artery; capsaicin pre-treatment): −16±8% | vasodilator response (relaxation) (rat hepatic artery; capsazepine (3 μM)): 93±2% | vasodilator response (relaxation) (rat hepatic artery; control): 98±1%

Reference: US20040204486A1, “Anandamide and structurally related lipids as vanilloid receptor modulators” (priority 2000, published 2004)
